Source: ChEMBL document CHEMBL5365529, “Construction and Evaluation of Novel Dual-function Antifungal Inhibitors and Covalent Organic Framework Carriers Based on the Infection Microenvironment” (J Med Chem, 2023)
pIC50: −log10 of the molar value. Values after ≈ are worked out from the molar mass of the structure shown. Active and inactive are the calls of the source. The calls are words filed in the database; no cut-off is given here.

How the values were obtained:
Candida albicans [1] = experiment: Antifungal activity against Candida albicans SC5314 assessed as fungal growth inhibition incubated for 72 hrs by CLSI based susceptibility test; type: functional
Candida albicans [2] = experiment: Induction of apoptosis in Candida albicans SC5314 assessed as necrotic cells incubated for 48 hrs by annexin V-FITC/PI staining based flow cytometry (reference value: 2.12 %); type: functional
Candida albicans [3] = experiment: Induction of mitochondrial membrane depolarization in Candida albicans SC5314 by JC-1 staining based flow cytometry (reference value: 12.51 %); type: functional
Candida albicans [4] = experiment: Antifungal activity against FLC-resistant Candida albicans 904 assessed as fungal growth inhibition incubated for 72 hrs by CLSI based susceptibility test; type: functional
Candida albicans [5] = experiment: Antifungal activity against FLC-resistant Candida albicans CaR assessed as fungal growth inhibition incubated for 72 hrs by CLSI based susceptibility test; type: functional
Candida albicans [6] = experiment: Induction of immunity in BALB/c mouse infected with Candida albicans 901 assessed as decrease in PD-L1 level at 0.5 ug/g administered 6 times measured after 4 days by Western blot analysis; type: functional, organism-based; conditions: dose 0.5 µg/g, time 4.0 day
[7] = molecular target: T1, Lanosterol 14-alpha demethylase (Candida albicans (strain SC5314 / ATCC MYA-2876) (Yeast), UniProt P10613); experiment: Inhibition of CYP51 in Candida albicans SC5314 assessed as lanosterol level at 4 ug/ml incubated for 16 hrs by GC-MS analysis relative to control; set-up: scale not given: the % may be the effect or the level left; conditions: at 4 µg/mL
Mus musculus [8] = experiment: Antiinflammatory activity in BALB/c mouse infected with Candida albicans 901 assessed as decrease in INF-gamma level at 0.5 ug/g administered 6 times measured after 4 days by Western blot analysis; type: functional, organism-based; conditions: dose 0.5 µg/g, time 4.0 day
Candida albicans [9] = experiment: Antifungal activity against Candida albicans 901 infected in BALB/c mouse assessed as reduction in fungal growth at 0.5 ug/g administered 6 times measured after 4 days by H and E staining based analysis; type: functional, organism-based; conditions: dose 0.5 µg/g, time 4.0 day
Candida albicans [10] = experiment: Antifungal activity against FLC-resistant Candida albicans 632 assessed as fungal growth inhibition incubated for 72 hrs by CLSI based susceptibility test; type: functional
Candida albicans [11] = experiment: Antifungal activity against FLC-resistant Candida albicans 17# assessed as fungal growth inhibition incubated for 72 hrs by CLSI based susceptibility test; type: functional
Candida albicans [12] = experiment: Antifungal activity against Candida albicans 901 infected in BALB/c mouse assessed as decrease in collagen fiber content at 0.5 ug/g administered 6 times measured after 4 days in presence of Biphenyl isopropyl ester by GMS staining based analysis; type: functional, organism-based; conditions: dose 0.5 µg/g, time 4.0 day
Candida albicans [13] = experiment: Induction of immunity in BALB/c mouse infected with Candida albicans 901 assessed as decrease in PD-L1 level at 0.5 ug/g administered 6 times measured after 4 days in presence of Biphenyl isopropyl ester by Western blot analysis; type: functional, organism-based; conditions: dose 0.5 µg/g, time 4.0 day
Aspergillus fumigatus = experiment: Antifungal activity against Aspergillus fumigatus KM8001 assessed as fungal growth inhibition incubated for 72 hrs by CLSI based susceptibility test; type: functional
Cryptococcus neoformans = experiment: Antifungal activity against Cryptococcus neoformans ZKCC 2209 assessed as fungal growth inhibition incubated for 72 hrs by CLSI based susceptibility test; type: functional
[14] = Toxicity in BALB/c mouse infected with Candida albicans 901 assessed as pathological change in kidney at 0.5 ug/g administered 6 times measured after 4 days in presence of Biphenyl isopropyl ester by H and E staining based analysis; type: tissue-based; conditions: in vivo, 96 h, dose 0.5 µg/g, time 4 day
Mus musculus [15] = experiment: Antiinflammatory activity in BALB/c mouse infected with Candida albicans 901 assessed as decrease in NLRP3 level at 0.5 ug/g administered 6 times measured after 4 days by Western blot analysis; type: functional, organism-based; conditions: dose 0.5 µg/g, time 4.0 day
[16] = Toxicity in BALB/c mouse infected with Candida albicans 901 assessed as pathological change in spleen at 0.5 ug/g administered 6 times measured after 4 days in presence of Biphenyl isopropyl ester by H and E staining based analysis; type: tissue-based; conditions: in vivo, 96 h, dose 0.5 µg/g, time 4 day
[17] = Toxicity in BALB/c mouse infected with Candida albicans 901 assessed as pathological change in liver at 0.5 ug/g administered 6 times measured after 4 days in presence of Biphenyl isopropyl ester by H and E staining based analysis; type: tissue-based; conditions: in vivo, 96 h, dose 0.5 µg/g, time 4 day
Candida albicans [18] = experiment: Antifungal activity against Candida albicans 901 infected in BALB/c mouse assessed as inhibition of fungal proliferation at 0.5 ug/g administered 6 times measured after 4 days in presence of Biphenyl isopropyl ester by Masson staining based analysis; type: functional, organism-based; conditions: dose 0.5 µg/g, time 4.0 day
Mus musculus [19] = experiment: Antiinflammatory activity in BALB/c mouse infected with Candida albicans 901 assessed as decrease in kappaB-p65 level at 0.5 ug/g administered 6 times measured after 4 days by Western blot analysis; type: functional, organism-based; conditions: dose 0.5 µg/g, time 4.0 day
Nakaseomyces glabratus = experiment: Antifungal activity against Candida glabrata assessed as fungal growth inhibition incubated for 72 hrs by CLSI based susceptibility test; type: functional
Candida albicans [20] = experiment: Antifungal activity against Candida albicans 901 infected in BALB/c mouse assessed as inhibition of fungal proliferation at 0.5 ug/g administered 6 times measured after 4 days in presence of Biphenyl isopropyl ester by GMS staining based analysis; type: functional, organism-based; conditions: dose 0.5 µg/g, time 4.0 day
Candida albicans [21] = experiment: Antifungal activity against Candida albicans 901 infected in BALB/c mouse assessed as decrease in collagen fiber content at 0.5 ug/g administered 6 times measured after 4 days in presence of Biphenyl isopropyl ester by Masson staining based analysis; type: functional, organism-based; conditions: dose 0.5 µg/g, time 4.0 day
[22] = molecular target: T1, Lanosterol 14-alpha demethylase; experiment: Inhibition of CYP51 in Candida albicans SC5314 assessed as unknown sterol level at 4 ug/ml incubated for 16 hrs by GC-MS analysis (reference value: 5.35 %); set-up: scale not given: the % may be the effect or the level left; conditions: at 4 µg/mL
[23] = Toxicity in BALB/c mouse infected with Candida albicans 901 assessed as pathological change in lung at 0.5 ug/g administered 6 times measured after 4 days in presence of Biphenyl isopropyl ester by H and E staining based analysis; type: tissue-based; conditions: in vivo, 96 h, dose 0.5 µg/g, time 4 day
Candida albicans [24] = experiment: Antifungal activity against Candida albicans 901 infected in BALB/c mouse assessed as repair of tissue damage at 0.5 ug/g administered 6 times measured after 4 days in presence of Biphenyl isopropyl ester by GMS staining based analysis; type: functional, organism-based; conditions: dose 0.5 µg/g, time 4.0 day
[25] = molecular target: T1, Lanosterol 14-alpha demethylase; experiment: Inhibition of CYP51 in Candida albicans SC5314 using lanosterol as substrate incubated for 60 mins by HPLC analysis
[26] = Toxicity in BALB/c mouse infected with Candida albicans 901 assessed as pathological change in heart at 0.5 ug/g administered 6 times measured after 4 days in presence of Biphenyl isopropyl ester by H and E staining based analysis; type: tissue-based; conditions: in vivo, 96 h, dose 0.5 µg/g, time 4 day
Candida albicans [27] = experiment: Antifungal activity against FLC-resistant Candida albicans 901 assessed as fungal growth inhibition incubated for 72 hrs by CLSI based susceptibility test; type: functional
Candida albicans [28] = experiment: Antifungal activity against Candida albicans 901 infected in BALB/c mouse assessed as repair of tissue damage at 0.5 ug/g administered 6 times measured after 4 days in presence of Biphenyl isopropyl ester by Masson staining based analysis; type: functional, organism-based; conditions: dose 0.5 µg/g, time 4.0 day
Candida albicans [29] = experiment: Induction of immunity in BALB/c mouse infected with Candida albicans 901 assessed as decrease in PD-L1 level at 0.5 ug/g administered 6 times measured after 4 days by IHC analysis; type: functional, organism-based; conditions: dose 0.5 µg/g, time 4.0 day
Candida tropicalis = experiment: Antifungal activity against Candida tropicalis ATCC 1369 assessed as fungal growth inhibition incubated for 72 hrs by CLSI based susceptibility test; type: functional
Candida albicans [30] = experiment: Induction of immunity in BALB/c mouse infected with Candida albicans 901 assessed as decrease in PD-L1 level at 0.5 ug/g administered 6 times measured after 4 days in presence of Biphenyl isopropyl ester by IHC analysis; type: functional, organism-based; conditions: dose 0.5 µg/g, time 4.0 day
Candida albicans [31] = experiment: Induction of apoptosis in Candida albicans SC5314 assessed as apoptotic cells incubated for 48 hrs by annexin V-FITC/PI staining based flow cytometry (reference value: 2.12 %); type: functional

T1 sequence (P10613 whole entry): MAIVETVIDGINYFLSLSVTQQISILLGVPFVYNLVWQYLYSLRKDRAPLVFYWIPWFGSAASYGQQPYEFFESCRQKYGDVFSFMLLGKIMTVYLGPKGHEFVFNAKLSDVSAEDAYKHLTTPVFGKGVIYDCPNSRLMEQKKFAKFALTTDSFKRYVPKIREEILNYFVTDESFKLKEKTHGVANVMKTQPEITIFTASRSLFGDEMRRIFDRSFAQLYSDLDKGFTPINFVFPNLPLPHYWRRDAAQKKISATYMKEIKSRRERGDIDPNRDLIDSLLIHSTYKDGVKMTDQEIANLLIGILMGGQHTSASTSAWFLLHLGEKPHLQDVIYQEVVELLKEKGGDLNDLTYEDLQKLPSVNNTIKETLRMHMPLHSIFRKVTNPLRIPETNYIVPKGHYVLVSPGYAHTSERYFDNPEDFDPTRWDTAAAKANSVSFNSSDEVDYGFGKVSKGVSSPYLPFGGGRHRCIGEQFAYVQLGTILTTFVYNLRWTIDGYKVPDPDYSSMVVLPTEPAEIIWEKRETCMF

Work on `CC(=O)N1CCN(c2ccc(OCC3COC(Cn4ccnc4)(c4ccc(Cl)cc4Cl)O3)cc2)CC1` (stereo not given) [KETOCONAZOLE] yielded an MIC50 (Candida albicans [1]) of 0.25 µg/mL (≈ 0.47 µM), an Activity (Candida albicans [2]) of 25.91% and an Activity (Candida albicans [3]) of 34.74%. The MIC50 (Candida albicans [4]) was 4 µg/mL (≈ 7.53 µM), the MIC50 (Candida albicans [5]) was ≥ 8 µg/mL and the Activity (Candida albicans [6]) was “Active”. The Activity [7] was 13.06%, the Activity (Mus musculus [8]) was “inactive” and the Activity (Candida albicans [9]) was “Active”. For the same molecule, the MIC50 (Candida albicans [10]) was ≥ 8 µg/mL, the MIC50 (Candida albicans [11]) was 4 µg/mL (≈ 7.53 µM) and the Activity (Candida albicans [12]) was “Active”. For the same molecule, the Activity (Candida albicans [13]) was “Active”, the MIC50 (Aspergillus fumigatus) was 4 µg/mL (≈ 7.53 µM) and the MIC50 (Cryptococcus neoformans) was 4 µg/mL (≈ 7.53 µM). The Activity [14] was “Non-Toxic”, the Activity (Mus musculus [15]) was “inactive” and the Activity [16] was “Non-Toxic”. The Activity [17] was “Non-Toxic”, the inhibition (Candida albicans [18]) was “Active” and the Activity (Mus musculus [19]) was “inactive”. For the same molecule, the MIC50 (Nakaseomyces glabratus) was 1 µg/mL (≈ 1.88 µM), the inhibition (Candida albicans [20]) was “Active” and the Activity (Candida albicans [21]) was “Active”. The Activity [22] was 5.07%, the Activity [23] was “Non-Toxic” and the Activity (Candida albicans [24]) was “Active”. The pIC50 [25] was 6.89, the Activity [26] was “Non-Toxic” and the MIC50 (Candida albicans [27]) was 4 µg/mL (≈ 7.53 µM). For the same molecule, the Activity (Candida albicans [28]) was “Active”, the Activity (Candida albicans [29]) was “Active” and the MIC50 (Candida tropicalis) was 0.5 µg/mL (≈ 0.941 µM). The Activity (Candida albicans [30]) was “Active” and the Activity (Candida albicans [31]) was 25.91%.
